Patent publication US9328374B2, “Selective culture medium and method for detecting carbapenem-resistant bacteria in a test sample” (Institut National de la Sante et de la Recherche Medicale …, priority 2011, dated 2016)

Key:
Test in all cases: MIC of imipenem, ertapenem and meropenem
E. cloacae = assay type: cell-based, Enterobacter cloacae
C. freundii = assay type: cell-based, Citrobacter freundii
E. aerogenes = assay type: cell-based, Enterobacter aerogenes

Compound `C[C@@H](O)[C@H]1C(=O)N2C(C(=O)O)=C(S[C@@H]3CN[C@H](C(=O)N(C)C)C3)[C@H](C)[C@H]12` [MEM, meropenem] has an MIC (E. cloacae; E. cloacae 501, OXA-48 + TEM-1 + CTX-M-15) of 1.5 µg/mL, an MIC (E. cloacae; E. cloacae 1012, TEM-1 + SHV-12, non-carbapenemase producer) of 0.016 µg/mL and an MIC (E. cloacae; E. cloacae 1019, TEM-1, non-carbapenemase producer, overexpressed AmpC) of 0.094 µg/mL. The MIC (E. cloacae; E. cloacae 1027, TEM-1 + CTX-M-15, non-carbapenemase producer) was 0.016 µg/mL, the MIC (E. cloacae; E. cloacae 1072, TEM-1 + OXA-1, non-carbapenemase producer, overexpressed AmpC) was 0.064 µg/mL and the MIC (E. cloacae; E. cloacae 5434 (wild type)) was 0.032 µg/mL. It also gave an MIC (E. cloacae; E. cloacae 5434, (wild type), non-carbapenemase producer) of 0.032 µg/mL, an MIC (E. cloacae; E. cloacae 7725, (wild type), non-carbapenemase producer) of 0.012 µg/mL and an MIC (E. cloacae; E. cloacae 7746, (wild type), non-carbapenemase producer) of 0.032 µg/mL. The MIC (E. cloacae; E. cloacae 10111 (TEM-1 + CTX-M-15)) was 0.094 µg/mL, the MIC (E. cloacae; E. cloacae 10111, TEM-1 + CTX-M-15, non-carbapenemase producer, overexpressed AmpC) was 0.094 µg/mL and the MIC (E. cloacae; E. cloacae 1008029, VIM-1+ CTX-M-3) was greater than 32 µg/mL. The MIC (E. cloacae; E. cloacae 1008079, IMP-1) was greater than 32 µg/mL, the MIC (E. cloacae; E. cloacae 1008187, IMP-1 + CTX-M-15) was 4 µg/mL and the MIC (E. cloacae; E. cloacae (KPC-2)) was 2 µg/mL. The MIC (E. cloacae; E. cloacae ARF (overexpressed AmpC)) was 0.12 µg/mL, the MIC (E. cloacae; E. cloacae ARF, Overexpressed AmpC, non-carbapenemase producer) was 0.12 µg/mL and the MIC (E. cloacae; E. cloacae AZA (overexpressed AmpC)) was 0.12 µg/mL. The MIC (E. cloacae; E. cloacae AZA, Overexpressed AmpC, non-carbapenemase producer) was 0.12 µg/mL, the MIC (E. cloacae; E. cloacae BEU, OXA-48 + TEM-1 + CTX-M-15 + SHV-12) was 0.5 µg/mL and the MIC (E. cloacae; E. cloacae BLA (overexpressed AmpC)) was 0.12 µg/mL. It also gave an MIC (E. cloacae; E. cloacae BLA, Overexpressed AmpC, non-carbapenemase producer) of 0.12 µg/mL, an MIC (E. cloacae; E. cloacae CFVL, KPC-2 + TEM-3) of 1 µg/mL and an MIC (E. cloacae; E. cloacae CLO (CTX-M-15)) of 0.12 µg/mL. It also gave an MIC (E. cloacae; E. cloacae CLO, CTX-M-15, non-carbapenemase producer) of 0.12 µg/mL, an MIC (E. cloacae; E. cloacae CON (overexpressed AmpC)) of 0.12 µg/mL and an MIC (E. cloacae; E. cloacae CON, Overexpressed AmpC, non-carbapenemase producer) of 0.25 µg/mL. It also gave an MIC (E. cloacae; E. cloacae CVB (VEB-1)) of 0.12 µg/mL, an MIC (E. cloacae; E. cloacae CVB, VEB-1, non-carbapenemase producer) of 0.12 µg/mL and an MIC (E. cloacae; E. cloacae HMG, KPC-2 + TEM-1) of 16 µg/mL. For the same compound, the MIC (E. cloacae; E. cloacae HPTU (KPC-2 + TEM-1 + SHV-11)) was 1.5 µg/mL, the MIC (E. cloacae; E. cloacae HPTU, KPC-2 + TEM-1 + SHV-11) was 1.5 µg/mL and the MIC (E. cloacae; E. cloacae IR38 (NDM-1 + CTX-M-15)) was 2 µg/mL. For the same compound, the MIC (E. cloacae; E. cloacae IR38, NDM-1 + CTX-M-15) was 2 µg/mL, the MIC (E. cloacae; E. cloacae KAR, VIM-1+ SHV-70) was 0.5 µg/mL and the MIC (E. cloacae; E. cloacae TAW (IMP-8 + SHV-12)) was 0.5 µg/mL. For the same compound, the MIC (E. cloacae; E. cloacae TAW, IMP-8 + SHV-12) was 0.5 µg/mL, the MIC (E. cloacae; E. cloacae TUR (OXA-48 + SHV-5)) was 0.5 µg/mL and the MIC (E. cloacae; E. cloacae TUR, OXA-48 + SHV-5) was 0.5 µg/mL. It also gave an MIC (E. cloacae; E. cloacae TWA, IMP-8) of 1 µg/mL, an MIC (E. cloacae; strain E. cloacae 10111, TEM-1 + CTX-M-15, non-carbapenemase producer) of 0.094 µg/mL and an MIC (E. cloacae; strain E. cloacae BLA, Overexpressed AmpC, non-carbapenemase producer) of 0.12 µg/mL. It also gave an MIC (E. cloacae; strain E. cloacae CLO, CTX-M-15, non-carbapenemase producer) of 0.12 µg/mL, an MIC (E. cloacae; strain E. cloacae CON, Overexpressed AmpC, non-carbapenemase producer) of 0.12 µg/mL and an MIC (E. cloacae; strain E. cloacae CVB, VEB-1, non-carbapenemase producer) of 0.12 µg/mL. The MIC (E. cloacae; strain E. cloacae HPTU, KPC-2 + TEM-1 + SHV-11) was 1.5 µg/mL, the MIC (E. cloacae; strain E. cloacae TAW, IMP-8 + SHV-12) was 0.5 µg/mL and the MIC (E. cloacae; strain E. cloacae TUR, OXA-48 + SHV-5) was 0.5 µg/mL. It also gave an MIC (C. freundii; C. freundii 1003, CTX-M-15 + TEM-1, non-carbapenemase producer) of 0.023 µg/mL, an MIC (C. freundii; C. freundii 7767 (wild type)) of 0.016 µg/mL and an MIC (C. freundii; C. freundii 7767, (wild type), non-carbapenemase producer) of 0.016 µg/mL. It also gave an MIC (C. freundii; C. freundii 10107 (TEM-1 + SHV-12)) of 0.023 µg/mL, an MIC (C. freundii; C. freundii 10107, TEM-1 + SHV-12, non-carbapenemase producer) of 0.023 µg/mL and an MIC (C. freundii; C. freundii 10135 (CTX-M-15)) of 0.023 µg/mL. For the same compound, the MIC (C. freundii; C. freundii 10135, CTX-M-15, non-carbapenemase producer) was 0.023 µg/mL, the MIC (C. freundii; C. freundii MAU (Overexpressed AmpC + TEM-3)) was 1 µg/mL and the MIC (C. freundii; C. freundii MAU, Overexpressed AmpC + TEM-3, non-carbapenemase producer) was 1 µg/mL. It also gave an MIC (C. freundii; C. freundii STE (NDM-1 + OXA-1 + OXA-9 + OXA-10 + CTX-M-15 + TEM-1)) greater than 32 µg/mL, an MIC (C. freundii; C. freundii STE, NDM-1 + TEM-1 + CTX-M-15 + VIM-4 + OXA-1 + OXA-9 + OXA-10 + OXA-181) greater than 32 µg/mL and an MIC (C. freundii; strain C. freundii 10107, TEM-1 + SHV-12, non-carbapenemase producer) of 0.023 µg/mL. For the same compound, the MIC (C. freundii; strain C. freundii 10135, CTX-M-15, non-carbapenemase producer) was 0.023 µg/mL, the MIC (C. freundii; strain C. freundii MAU, Overexpressed AmpC + TEM-3, non-carbapenemase producer) was 1 µg/mL and the MIC (E. aerogenes; E. aerogenes 1009, TEM-24, non-carbapenemase producer) was 0.016 µg/mL. The MIC (E. aerogenes; E. aerogenes 1085 (TEM-24)) was 0.023 µg/mL, the MIC (E. aerogenes; E. aerogenes 1085, TEM-24, non-carbapenemase producer) was 0.023 µg/mL and the MIC (E. aerogenes; strain E. aerogenes 1085, TEM-24, non-carbapenemase producer) was 0.023 µg/mL.
